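Results reflect a 48-hour exposure of cells in 96-well plates to compound at five concentrations. Here, GI50 denotes the concentration required for 50% inhibition of growth.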 Calls of active or inactive are those of the source. Rule as the data show it: active = GI50 up to about 1.1 µM and inactive = higher.
Columns and labels:
Assay in all cases: DTP human tumour cell line panel, 48 h
Malme-3M = test system: Malme-3M
MDA-N = test system: MDA-N
SNB-75 = test system: SNB-75
MOLT-4 = test system: MOLT-4
CAKI-1 = test system: CAKI-1
OVCAR-3 = test system: OVCAR-3
NCI-H522 = test system: NCI-H522
SF-268 = test system: SF-268
SNB-19 = test system: SNB-19
DU-145 = test system: DU-145
K562 = test system: K562
UACC-257 = test system: UACC-257
SR = test system: SR
HL-60 = test system: HL-60
IGROV-1 = test system: IGROV-1
KM12 = test system: KM12
RPMI-8226 = test system: RPMI-8226
SF-295 = test system: SF-295
SK-MEL-28 = test system: SK-MEL-28
ACHN = test system: ACHN

Measured: GI50

OC1[C@@H]2[C@@H](O)CCCN2C[C@@H](O)[C@H]1O (stereo not given in full)
inactive: Malme-3M > 100 µM | MDA-N > 100 µM | SNB-75 > 100 µM | MOLT-4 > 100 µM | CAKI-1 > 100 µM | OVCAR-3 > 100 µM | NCI-H522 19.5 µM | SF-268 > 100 µM | SNB-19 > 100 µM | DU-145 > 100 µM | K562 > 100 µM | UACC-257 > 100 µM | SR > 100 µM | HL-60 > 100 µM | IGROV-1 > 100 µM | KM12 > 100 µM | RPMI-8226 > 100 µM | SF-295 > 100 µM | SK-MEL-28 > 100 µM | ACHN > 100 µM

Cc1ccc(S(=O)(=O)Oc2nc3ccccc3nc2OS(=O)(=O)c2ccc(C)cc2)cc1
inactive: Malme-3M 17 µM | MDA-N > 100 µM | SNB-75 > 100 µM | MOLT-4 71.3 µM | CAKI-1 8.39 µM | OVCAR-3 > 100 µM | NCI-H522 16.9 µM | SF-268 > 100 µM | SNB-19 > 100 µM | DU-145 > 100 µM | K562 32.4 µM | UACC-257 > 100 µM | SR 54.7 µM | HL-60 32.3 µM | IGROV-1 > 100 µM | KM12 > 100 µM | RPMI-8226 40.9 µM | SF-295 > 100 µM | SK-MEL-28 28 µM | ACHN > 100 µM

CC(=O)NC1CCC(NC(=O)OC(C)(C)C)C(NC(=O)OC(C)(C)C)C1 (stereo not given)
inactive: Malme-3M > 100 µM | MDA-N > 100 µM | SNB-75 > 100 µM | MOLT-4 > 100 µM | CAKI-1 > 100 µM | OVCAR-3 > 100 µM | NCI-H522 > 100 µM | SF-268 > 100 µM | SNB-19 > 100 µM | DU-145 > 100 µM | K562 > 100 µM | UACC-257 > 100 µM | SR > 100 µM | HL-60 > 100 µM | IGROV-1 > 100 µM | KM12 > 100 µM | RPMI-8226 > 100 µM | SF-295 > 100 µM | SK-MEL-28 > 100 µM | ACHN > 100 µM

Cn1c(N)c(/N=N/c2ccc(S(N)(=O)=O)cc2)c(=O)n(C)c1=O
inactive: Malme-3M > 100 µM | MDA-N > 100 µM | SNB-75 22.6 µM | MOLT-4 > 100 µM | CAKI-1 > 100 µM | OVCAR-3 > 100 µM | NCI-H522 80.9 µM | SF-268 88.1 µM | SNB-19 81.8 µM | DU-145 > 100 µM | K562 > 100 µM | UACC-257 > 100 µM | SR > 100 µM | HL-60 > 100 µM | IGROV-1 > 100 µM | KM12 > 100 µM | RPMI-8226 > 100 µM | SF-295 > 100 µM | SK-MEL-28 > 100 µM | ACHN 96.8 µM
